O=C1c2cccc(O)c2C(=O)c2c(O)cc(CO)cc21
solubility (mole fraction) (in ethanol, 283.15 K): 2.21e-05 | solubility (mole fraction) (in ethanol, 288.15 K): 2.58e-05 | solubility (mole fraction) (in ethanol, 293.15 K): 3.15e-05 | solubility (mole fraction) (in ethanol, 298.15 K): 3.83e-05 | solubility (mole fraction) (in ethanol, 303.15 K): 4.45e-05 | solubility (mole fraction) (in ethanol, 308.15 K): 5.2e-05 | solubility (mole fraction) (in ethanol, 313.15 K): 6.32e-05 | solubility (mole fraction) (in ethanol, 318.15 K): 7.71e-05 | solubility (mole fraction) (in ethanol, 323.15 K): 9e-05 | solubility (mole fraction) (in water, 283.15 K): 3.32e-07 | solubility (mole fraction) (in water, 288.15 K): 4.51e-07 | solubility (mole fraction) (in water, 293.15 K): 5.84e-07 | solubility (mole fraction) (in water, 298.15 K): 8.17e-07 | solubility (mole fraction) (in water, 303.15 K): 1.15e-06 | solubility (mole fraction) (in water, 308.15 K): 1.58e-06 | solubility (mole fraction) (in water, 313.15 K): 2.1e-06 | solubility (mole fraction) (in water, 318.15 K): 2.72e-06 | solubility (mole fraction) (in water, 323.15 K): 3.9e-06

Cc1cc(O)c2c(c1)C(=O)c1cc(O)cc(O)c1C2=O
solubility (mole fraction) (in ethanol, 283.15 K): 8.37e-05 | solubility (mole fraction) (in ethanol, 288.15 K): 9.39e-05 | solubility (mole fraction) (in ethanol, 293.15 K): 0.000112 | solubility (mole fraction) (in ethanol, 298.15 K): 0.000132 | solubility (mole fraction) (in ethanol, 303.15 K): 0.00015 | solubility (mole fraction) (in ethanol, 308.15 K): 0.00017 | solubility (mole fraction) (in ethanol, 313.15 K): 0.000203 | solubility (mole fraction) (in ethanol, 318.15 K): 0.000231 | solubility (mole fraction) (in ethanol, 323.15 K): 0.000268 | solubility (mole fraction) (in water, 283.15 K): 3.2e-08 | solubility (mole fraction) (in water, 288.15 K): 4.6e-08 | solubility (mole fraction) (in water, 293.15 K): 6e-08 | solubility (mole fraction) (in water, 298.15 K): 8.2e-08 | solubility (mole fraction) (in water, 303.15 K): 1e-07 | solubility (mole fraction) (in water, 308.15 K): 1.32e-07 | solubility (mole fraction) (in water, 313.15 K): 1.79e-07 | solubility (mole fraction) (in water, 318.15 K): 2.15e-07 | solubility (mole fraction) (in water, 323.15 K): 2.79e-07

From BigSolDB 2.1
